Test results as given in PubChem BioAssay AID248 (DTP/NCI, 2004).
“And” between values parts separate entries of the source, which are not always exact repeats. Equal values may be shown once. Toxic doses and inconclusive results are not listed.

Tested on: L1210 leukemia ip in BDF1 mice, survival T/C
Experiment: NCI In Vivo Anticancer Drug Screen. Data for tumor model L1210 Leukemia (intraperitoneal) in B6D2F1 (BDF1) mice
Conditions: endpoint: mean survival time, higher = longer survival
In short: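 Tumor cells were implanted, animals were treated, and survival was followed. The result divides the treated measurement by the vehicle-control measurement.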

[1] = dose: 100.0 mg/kg/injection, schedule: Q04DX002 (ip), vehicle: Klucel (hydroxypropylcellulose) (HPC)
[2] = dose: 200.0 mg/kg/injection, schedule: Q04DX002 (ip), vehicle: Klucel (hydroxypropylcellulose) (HPC)
[3] = dose: 400.0 mg/kg/injection, schedule: Q04DX002 (ip), vehicle: Klucel (hydroxypropylcellulose) (HPC)
[4] = dose: 100.0 mg/kg/injection, schedule: Q01DX009 (ip), vehicle: saline
[5] = dose: 100.0 mg/kg/injection, schedule: Q04DX003 (ip), vehicle: saline
[6] = dose: 200.0 mg/kg/injection, schedule: Q04DX003 (ip), vehicle: saline
[7] = dose: 100.0 mg/kg/injection, schedule: Q04DX003 (ip), vehicle: saline with Tween-80
[8] = dose: 200.0 mg/kg/injection, schedule: Q04DX003 (ip), vehicle: saline with Tween-80
[9] = dose: 400.0 mg/kg/injection, schedule: Q04DX003 (ip), vehicle: saline with Tween-80
[10] = dose: 100.0 mg/kg/injection, schedule: Q01DX001 (ip), vehicle: carboxymethylcellulose (CMC)
[11] = dose: 200.0 mg/kg/injection, schedule: Q01DX001 (ip), vehicle: carboxymethylcellulose (CMC)
[12] = dose: 400.0 mg/kg/injection, schedule: Q01DX001 (ip), vehicle: carboxymethylcellulose (CMC)
[13] = dose: 400.0 mg/kg/injection, schedule: Q04DX003 (ip), vehicle: saline
[14] = dose: 100.0 mg/kg/injection, schedule: Q01DX009 (ip), vehicle: saline with Tween-80
[15] = dose: 200.0 mg/kg/injection, schedule: Q01DX009 (ip), vehicle: saline with Tween-80
[16] = dose: 400.0 mg/kg/injection, schedule: Q01DX009 (ip), vehicle: saline with Tween-80
[17] = dose: 100.0 mg/kg/injection, schedule: Q04DX002 (ip), vehicle: saline with Tween-80
[18] = dose: 400.0 mg/kg/injection, schedule: Q04DX002 (ip), vehicle: saline with Tween-80
[19] = dose: 100.0 mg/kg/injection, schedule: Q04DX003 (ip), vehicle: Klucel (hydroxypropylcellulose) (HPC)
[20] = dose: 200.0 mg/kg/injection, schedule: Q04DX003 (ip), vehicle: Klucel (hydroxypropylcellulose) (HPC)
[21] = dose: 400.0 mg/kg/injection, schedule: Q04DX003 (ip), vehicle: Klucel (hydroxypropylcellulose) (HPC)
[22] = dose: 100.0 mg/kg/injection, schedule: Q01DX001 (ip), vehicle: saline
[23] = dose: 200.0 mg/kg/injection, schedule: Q01DX001 (ip), vehicle: saline
[24] = dose: 400.0 mg/kg/injection, schedule: Q01DX001 (ip), vehicle: saline

O=C(CCl)NC1C2CC3CC(C2)CC1C3 (stereo not given)
T/C [1]: 104 % of control
T/C [2]: 101 % of control
T/C [3]: 96 % of control

CCOC(=O)N(C1CCCCC1)P(=O)(OCC)OCC
T/C (dose: 12.5 mg/kg/injection, schedule: Q01DX009 (ip), vehicle: saline): 96 % of control and 108 % of control
T/C (dose: 12.5 mg/kg/injection, schedule: Q04DX003 (ip), vehicle: saline): 100 % of control
T/C (dose: 25.0 mg/kg/injection, schedule: Q01DX009 (ip), vehicle: saline): 100 % of control and 91 % of control
T/C (dose: 25.0 mg/kg/injection, schedule: Q04DX003 (ip), vehicle: saline): 107 % of control
T/C (dose: 50.0 mg/kg/injection, schedule: Q01DX009 (ip), vehicle: saline): 97 % of control and 100 % of control
T/C (dose: 50.0 mg/kg/injection, schedule: Q04DX003 (ip), vehicle: saline): 110 % of control
T/C [4]: 103 % of control and 91 % of control
T/C [5]: 103 % of control
T/C [6]: 100 % of control

OC1CC2C=C(c3ccccc3)C1C2 (stereo not given)
T/C [7]: 96 % of control
T/C [8]: 93 % of control
T/C [9]: 88 % of control

COc1ccc2c(c1)C13CCCC(C)(C(=O)NC1)C3CC2 (stereo not given)
T/C [10]: 93 % of control
T/C [11]: 95 % of control
T/C [12]: 101 % of control

O=C(O)/C=C/C(=O)Nc1cccc(Oc2ccc([N+](=O)[O-])cc2[N+](=O)[O-])c1
T/C [5]: 106 % of control
T/C [6]: 111 % of control
T/C [13]: 104 % of control

Cc1ccccc1NC(=O)c1ccccc1
T/C [7]: 100 % of control
T/C [8]: 98 % of control
T/C [9]: 98 % of control

C=C(Br)CNC(=O)Nc1cccc2c1CCCC2
T/C [14]: 94 % of control
T/C [7]: 86 % of control
T/C [15]: 97 % of control
T/C [8]: 86 % of control
T/C [16]: 92 % of control
T/C [9]: 88 % of control

CC(=O)Nc1ccc(NC(=O)c2ccccc2Cl)cc1
T/C [14]: 93 % of control and 102 % of control
T/C [17]: 105 % of control and 90 % of control
T/C [7]: 98 % of control
T/C [15]: 96 % of control and 97 % of control
T/C (dose: 200.0 mg/kg/injection, schedule: Q04DX002 (ip), vehicle: saline with Tween-80): 90 % of control and 91 % of control
T/C [8]: 95 % of control
T/C [16]: 117 % of control and 91 % of control
T/C [18]: 101 % of control and 110 % of control
T/C [9]: 98 % of control

O=C1OCCN1C(=O)c1ccc(C(=O)N2CCOC2=O)cc1
T/C (dose: 100.0 mg/kg/injection, schedule: Q01DX001 (ip), vehicle: Klucel (hydroxypropylcellulose) (HPC)): 94 % of control
T/C (dose: 100.0 mg/kg/injection, schedule: Q01DX007 (ip), vehicle: Klucel (hydroxypropylcellulose) (HPC)): 89 % of control
T/C [19]: 97 % of control
T/C (dose: 200.0 mg/kg/injection, schedule: Q01DX001 (ip), vehicle: Klucel (hydroxypropylcellulose) (HPC)): 87 % of control
T/C (dose: 200.0 mg/kg/injection, schedule: Q01DX007 (ip), vehicle: Klucel (hydroxypropylcellulose) (HPC)): 92 % of control
T/C [20]: 101 % of control
T/C (dose: 400.0 mg/kg/injection, schedule: Q01DX001 (ip), vehicle: Klucel (hydroxypropylcellulose) (HPC)): 92 % of control
T/C (dose: 400.0 mg/kg/injection, schedule: Q01DX007 (ip), vehicle: Klucel (hydroxypropylcellulose) (HPC)): 90 % of control
T/C [21]: 95 % of control

C1CC(CCN2CCOCC2)CCN1
T/C [22]: 98 % of control
T/C [23]: 107 % of control
T/C [24]: 105 % of control

O=C(Cl)C(=O)c1c[nH]c2ccccc12
T/C [1]: 101 % of control
T/C [2]: 101 % of control
T/C [3]: 95 % of control

C[Si](C)(C)Cc1ccc(F)cc1
T/C (dose: 25.6 mg/kg/injection, schedule: Q04DX002 (ip), vehicle: saline with Tween-80): 90 % of control
T/C (dose: 64.0 mg/kg/injection, schedule: Q04DX002 (ip), vehicle: saline with Tween-80): 93 % of control
T/C [7]: 93 % of control
T/C (dose: 160.0 mg/kg/injection, schedule: Q04DX002 (ip), vehicle: saline with Tween-80): 97 % of control
T/C [8]: 97 % of control
T/C [18]: 97 % of control
T/C [9]: 93 % of control

CC(C)(C)OC(=O)N/N=C/c1ccc([N+](=O)[O-])s1
T/C [7]: 94 % of control
T/C [8]: 98 % of control
T/C [9]: 89 % of control

CSC1=NCCCC1
T/C (dose: 75.0 mg/kg/injection, schedule: Q01DX001 (ip), vehicle: saline): 105 % of control
T/C (dose: 150.0 mg/kg/injection, schedule: Q01DX001 (ip), vehicle: saline): 104 % of control

CCOC(=O)CCC(NC(=O)c1cc(Cl)c(N(CC)Cc2cnc3nc(N)nc(N)c3n2)c(Cl)c1)C(=O)OCC (stereo not given)
T/C (dose: 25.0 mg/kg/injection, schedule: Q01DX009 (ip), vehicle: Klucel (hydroxypropylcellulose) (HPC)): 179 % of control

O=C(Nc1ccc(Cl)c(Cl)c1)Nc1ccc(Cl)c(Cl)c1
T/C [1]: 100 % of control
T/C [2]: 90 % of control
T/C [3]: 86 % of control

Cc1cc(C)c(CCc2cc(C)c(C)cc2C)cc1C
T/C [14]: 93 % of control
T/C [19]: 104 % of control
T/C [15]: 92 % of control
T/C [20]: 93 % of control
T/C [16]: 87 % of control
T/C [21]: 109 % of control

CCOC(=O)N1c2ccccc2C=CC1C#N (stereo not given)
T/C (dose: 44.0 mg/kg/injection, schedule: Q04DX003 (ip), vehicle: saline): 108 % of control
T/C (dose: 66.0 mg/kg/injection, schedule: Q04DX003 (ip), vehicle: saline): 105 % of control
T/C [4]: 93 % of control
T/C [5]: 94 % of control and 96 % of control
T/C (dose: 200.0 mg/kg/injection, schedule: Q01DX009 (ip), vehicle: saline): 100 % of control
T/C [6]: 101 % of control and 102 % of control
T/C (dose: 400.0 mg/kg/injection, schedule: Q01DX009 (ip), vehicle: saline): 95 % of control
T/C [13]: 102 % of control

CC1(C)CC(=O)N(c2ccccc2)N1
T/C [19]: 94 % of control
T/C [20]: 103 % of control
T/C [21]: 107 % of control

O=C1NC(=O)C(Cc2ccccc2)(Cc2ccccc2)C(=O)N1Cc1ccccc1
T/C [10]: 90 % of control
T/C [11]: 90 % of control
T/C [12]: 98 % of control

Cc1cc(N(CCOS(C)(=O)=O)CCOS(C)(=O)=O)ccc1C=Nc1cc(Cl)c(O)c(Cl)c1
T/C (dose: 20.0 mg/kg/injection, schedule: Q04DX003 (ip), vehicle: Klucel (hydroxypropylcellulose) (HPC)): 121 % of control
T/C (dose: 40.0 mg/kg/injection, schedule: Q04DX003 (ip), vehicle: Klucel (hydroxypropylcellulose) (HPC)): 118 % of control
T/C (dose: 80.0 mg/kg/injection, schedule: Q04DX003 (ip), vehicle: Klucel (hydroxypropylcellulose) (HPC)): 100 % of control

O=C(/C=C\c1ccc(Cl)c(Cl)c1)/C=C/c1ccc(Cl)c(Cl)c1
T/C [17]: 92 % of control
T/C [18]: 92 % of control

CC1(C)OC(CF)C2OC(C)(C)OC(CF)C2O1 (stereo not given)
T/C (dose: 56.25 mg/kg/injection, schedule: Q01DX009 (ip), vehicle: carboxymethylcellulose (CMC)): 95 % of control
T/C [10]: 96 % of control
T/C (dose: 112.5 mg/kg/injection, schedule: Q01DX009 (ip), vehicle: carboxymethylcellulose (CMC)): 102 % of control
T/C [11]: 96 % of control
T/C [12]: 104 % of control

Nc1c(Cl)ncnc1Nc1ccc(C(=O)O)cc1
T/C (dose: 50.0 mg/kg/injection, schedule: Q01DX001 (ip), vehicle: saline): 96 % of control
T/C [22]: 98 % of control
T/C [23]: 96 % of control
T/C [24]: 96 % of control

O=C1c2cccnc2C(=O)N1Cc1ccccc1
T/C (dose: 100.0 mg/kg/injection, schedule: Q01DX009 (ip), vehicle: saline sonified): 103 % of control
T/C [19]: 107 % of control
T/C (dose: 200.0 mg/kg/injection, schedule: Q01DX009 (ip), vehicle: saline sonified): 96 % of control
T/C [20]: 103 % of control
T/C (dose: 400.0 mg/kg/injection, schedule: Q01DX009 (ip), vehicle: saline sonified): 102 % of control
T/C [21]: 102 % of control
